Test results published in patent publication US20200405687A1, “METHODS FOR THE TREATMENT OF INFECTION” (Corbus Pharmaceuticals, Inc., priority 2016, published 2020).

System: UV-killed Escherichia coli
Experiment: Skin challenge (blister) model, intradermal UV-killed E. coli in healthy volunteers (Example 3)
Format: in vivo, humans
Description: The ability of administration of a pharmaceutical composition including ajulemic acid to treat infection was assayed in a skin challenge model. A self-resolving acute inflammatory response was triggered by the intradermal injection of UV-killed Escherichia coli into the forearm of healthy volunteers. […] This study was performed to determine whether ajulemic acid promotes the resolution of infection at the site of inflammation, thereby treating that infection.
Cells and exudates were harvested at several time points following injection of UV-killed E. coli by applying negative pressure over the inflamed site.
The study included four experimental groups (n=10 in each group): • 1) Placebo, twice daily for four days • 2) Ajulemic acid, 5 mg, twice daily for four days • 3) Ajulemic acid, 20 mg, twice daily for four days • 4) Prednisone, 15 mg daily for four days
The volunteer (healthy males, 18-50 years) were randomly allocated to one of the above three groups and orally administered the test drug for four consecutive days. On the morning of the fourth day (after intake of the first dose), experimental acute inflammation was elicited by infection with UV-killed E. coli. The drug and the placebo were provided as capsules.
UV killed E. coli (Strain: NCTC 10418, Source: Public Health England, UK) were prepared as follows. E. coli described were grown overnight in Luria Broth (Sigma) at 37° C. The next morning, the bacteria were washed twice in sterile PBS (2500 g, 20 min, 4° C.) and resuspended in a sterile petri dish.
Bacteria were then killed by exposure to an ultraviolet light (UV) source (302 nm, ChemiDoc, trans-UV mode; Bio-Rad laboratories) for 60 min and then washed again in sterile saline. Bacterial counts were determined by optical density (OD600=0.365 equates to […] E. coli/ml). UVKEc were resuspended in a volume of sterile saline to obtain the count of 1.5×10^8/ml, aliquoted into sterile eppendorf tubes and then frozen at −80° C. until used for injections.
After disinfecting and shaving the skin, 1.5×10^7 UVKEc in 100 μl saline were injected intradermally into a marked site on the volar aspect of each forearm. To characterize the treatment of infection using ajulemic acid, each forearm was allotted to one of the predefined time-points namely 4, 8, 14, 24, 48 or 72 hours (h). Thus the effects of intradermal injection of UVKEc were allowed to progress for the duration of the time-point after which a suction blister was raised over the marked injection site, and then aspirated immediately. In summary, volunteer had two injection sites, one on each forearm, and contributed to two time points. On a separate group of volunteers, blister was raised on the naïve skin and treated as the baseline time point. Study time-points were discussed with volunteers before consenting.
Laser Doppler Imager (moor LDI-HIR, Moor Instruments Ltd, Axminster, Devon, UK) was used to quantify the blood flow at the site of infection. At predefined time points after injection of UVKEc, the forearm was placed under the scanner at a fixed distance to scan a fixed area. The scanner emits a laser beam, a portion of which is scattered by red blood cells present at the inflamed area. The scattering causes a change in frequency of the reflected light which is then detected by a photo detector. The velocity and concentration of red blood cells at the site directly affect the Doppler frequency shifts and account for the signal strength measured in arbitrary perfusion units. […] The total blood flow (measured in perfusion units) was calculated as product of number of valid pixels above background signal (Cut-off=300 perfusion units) and the mean blood flow signal over the valid pixels 11, 12.
To obtain the exudate from the site of infection, a 10 mm diameter suction blister was induced directly over the site of injection. […]

Structure (SMILES): C[C@]12C=CC(=O)C=C1CC[C@@H]1[C@@H]2C(=O)C[C@@]2(C)[C@H]1CC[C@]2(O)C(=O)CO [prednisone, reference compound]
- rise in C-reactive protein (CRP) levels in serum (after UVKEc triggered acute inflammation, multiple time points): does appear to inhibit the rise in CRP
- infiltration of neutrophils at the site of inflammation (blister exudate) (ajulemic acid 5 mg or 20 mg BID, prednisone 15 mg daily, 4 h and 10 h, relative to placebo): decrease in the infiltration of neutrophils
- levels of endotoxin at the site of injection (ajulemic acid 5 mg or 20 mg BID, prednisone 15 mg daily, 4 hr and 10 hr, limulus amoebocyte lysate test): appears to increase the levels of endotoxin
- bacterial clearance (prednisone 15 mg daily, four days): does not increase bacterial clearance and may slow the rate of bacterial clearance
